Legend:
NLRP3 [1] = target: T1, NLRP3 (Mus musculus, UniProt Q8R4B8); experiment: Inhibition curves (IC50) of canonical NLRP3 activation in J774A.1 cells, IL-1β release; assay type: cell-based; set-up: The mouse macrophage cell line J774A.1 was used, and LPS was used as the first signal; host or cells: J774A.1 mouse monocyte-macrophage cell line; details: J774A.1 cell LPS+ATP activation model
Description: J774A.1 cells were plated in a 48-well plate at a density of 1.0×10^6 cells/mL, with 300 µL per well. Subsequently, NLRP3 was activated by LPS+ATP or LPS+Nig. […] ATP was purchased from Sigma, Cat. No.: L2654. Nig was purchased from Shanghai Yuanye Bio-Technology Co., Ltd., Cat. No.: S45490.
Experimental groups: a negative control group, an LPS-alone incubation control group, an LPS+ATP/Nig positive control group, and an example compound experimental group with different concentrations.
After the plated J774A.1 cells adhering to the plate, the culture medium was replaced. For all the groups except the negative control group, the culture medium was completely replaced with cell culture medium containing 1 µg/mL LPS. The negative control group received cell culture medium. Then, all the groups were incubated overnight. 18 h later, the culture medium was replaced again. The culture medium of the example compound experimental group was completely replaced with culture medium containing different concentrations of compounds; while the negative control group, the LPS-alone incubation control group, and the LPS+ATP/Nig positive control group received cell culture medium. 1 h later, the culture mediums of the LPS+ATP/Nig positive control group and the example compound experimental group with different concentrations were completely replaced with cell culture medium containing 5 mM ATP or 10 µM Nig. 1 h later, the cell supernatants were collected for IL-1β detection.
Therefore, the relative change in the amount of IL-1β release may directly reflect NLRP3 inhibitory effect. The inhibitory effect of the compounds varies with different concentrations, and based on this, an inhibition curve can be constructed, and the inhibitory effects of the compounds were assessed by IC50.

NLRP3 [2] = target: T1, NLRP3; experiment: Inhibition of APOE peptide-induced NLRP3 activation in J774A.1 cells, IL-1β release; assay type: cell-based; set-up: The mouse macrophage cell line J774A.1 was used, and LPS was used as the first signal; host or cells: J774A.1 mouse monocyte-macrophage cell line; details: J774.A1, 10 µM compound, 30 µg/mL APOE peptide
Description: J774A.1 cells were plated in a 48-well plate at a density of 1.0×10^6 cells/mL, with 300 µL per well. Subsequently, NLRP3 was activated by APOE peptide. The cell culture medium comprises: DMEM (brand: Gibco, Cat. No.: C12430500) + 10% fetal bovine serum (brand: Gibco, Cat. No.: 10099-141) + 1% sodium pyruvate (brand: Gibco, Cat. No.: 11360-070) + 1% penicillin-streptomycin solution (brand: Solarbio, Cat. No.: P1400). The J774A.1 mouse monocyte-macrophage cell line was purchased from the Cell Resource Center of the Institute of Basic Medical Sciences of Chinese Academy of Medical Sciences (Resource No. 1101MOU-PUMC000222). APOE2/3 peptide 1-151 was obtained through recombinant protein expression and purification by Biocells (Beijing) Biotech Co., Ltd. The procedures were as follows: the sequence (SEQ ID NO: 1) shown below was inserted into the pET-28A plasmid and transformed into BL-21(DE3) expression strain; the expression of target protein was induced with IPTG at a low temperature; after collecting the bacteria via centrifugation, ultrasonic disruption was performed; and after centrifugation, the supernatant was purified by nickel ion affinity chromatography (AKTA pure), and then the product was concentrated by ultrafiltration and identified by BCA+protein electrophoresis. Sequence: [formula]
Experimental groups: a negative control group, an APOE treatment control group, and an example compound experimental group.
After the plated J774A.1 cells adhering to the plate, the culture medium was replaced. The culture medium of the APOE treatment control group was replaced with cell culture medium containing 30 µg/mL APOE peptide, the culture medium of the example compound experimental group was replaced with culture medium containing 30 µg/mL APOE peptide combined with the compounds, and the negative control group received cell culture medium. Then, all the groups were incubated overnight. 18 h later, the cell supernatants were collected for IL-1β detection.
Activation of NLRP3 by APOE peptide will result in release of mature IL-1β, and the release can be inhibited by NLRP3 inhibitors. Therefore, the relative change in the amount of IL-1β release may directly reflect NLRP3 inhibitory effect.
In this experimental example, effective inhibition refers to a reduction of 70% or more in the release amount, compared with the release amount of the positive control minus the negative control.

T1 sequence (Q8R4B8 whole entry): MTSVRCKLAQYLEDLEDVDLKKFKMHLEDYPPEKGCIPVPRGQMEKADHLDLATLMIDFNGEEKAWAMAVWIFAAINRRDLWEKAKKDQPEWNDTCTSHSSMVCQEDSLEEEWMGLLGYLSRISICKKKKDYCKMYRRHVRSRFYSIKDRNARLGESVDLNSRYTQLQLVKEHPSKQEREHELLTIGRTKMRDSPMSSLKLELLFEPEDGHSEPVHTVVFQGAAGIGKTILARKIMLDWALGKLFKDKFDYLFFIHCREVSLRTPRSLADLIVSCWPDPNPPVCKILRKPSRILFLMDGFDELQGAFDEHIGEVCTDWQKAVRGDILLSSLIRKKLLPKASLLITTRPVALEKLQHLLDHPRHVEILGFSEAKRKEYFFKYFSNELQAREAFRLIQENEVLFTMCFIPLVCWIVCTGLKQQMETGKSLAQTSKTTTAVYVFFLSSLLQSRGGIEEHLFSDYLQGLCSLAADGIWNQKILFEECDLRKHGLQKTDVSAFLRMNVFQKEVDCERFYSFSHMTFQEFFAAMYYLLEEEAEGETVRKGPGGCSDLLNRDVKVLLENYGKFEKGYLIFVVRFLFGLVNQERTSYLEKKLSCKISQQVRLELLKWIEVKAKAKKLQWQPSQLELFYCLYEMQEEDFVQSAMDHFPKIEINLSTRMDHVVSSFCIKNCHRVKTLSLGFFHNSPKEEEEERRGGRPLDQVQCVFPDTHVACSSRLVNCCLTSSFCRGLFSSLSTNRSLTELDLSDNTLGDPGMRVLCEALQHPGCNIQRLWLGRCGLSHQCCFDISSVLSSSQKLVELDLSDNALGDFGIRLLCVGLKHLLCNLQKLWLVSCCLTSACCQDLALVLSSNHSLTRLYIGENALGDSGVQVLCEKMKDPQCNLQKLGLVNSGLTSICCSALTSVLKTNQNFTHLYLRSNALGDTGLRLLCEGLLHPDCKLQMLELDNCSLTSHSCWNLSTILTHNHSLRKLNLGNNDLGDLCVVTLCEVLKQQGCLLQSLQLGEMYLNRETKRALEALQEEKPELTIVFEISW

| Structure (SMILES) | IC50 (NLRP3 [1]) | inhibition at 10 µM (NLRP3 [2]) |
| --- | --- | --- |
| CN(C)Cc1cc(S(=O)(=O)NC(=O)Nc2c3c(cc4c2CCC4)CCC3)ccc1O [Example 5, 3-((dimethylamino)methyl)-N-((1,2,3,5,6,7-hexahydro-s-indacen-4-yl)carbamoyl)-4-hydroxybenzenesulfonamide] | 0.224 µM | ≥ 70% |
| COc1ccc(S(=O)(=O)NC(=O)Nc2c3c(cc4c2CCC4)CCC3)cc1CN(C)C [Example 3, 3-((dimethylamino)methyl)-N-((1,2,3,5,6,7-hexahydro-s-indacen-4-yl)carbamoyl)-4-methoxybenzenesulfonamide] | 0.203 µM | ≥ 70% |
| CN(C)Cc1cccc(S(=O)(=O)NC(=O)Nc2c3c(cc4c2CCC4)CCC3)c1N [Example 19, 2-amino-3-((dimethylamino)methyl)-N-((1,2,3,5,6,7-hexahydro-s-indacen-4-yl)carbamoyl)benzenesulfonamide] | 0.114 µM | ≥ 70% |

Reference: patent EP4796530A1 (Biocells (Beijing) Biotech Co., Ltd., priority 2023, dated 2025)
